# Where two headings read alike, the source gives them in different places.
# Columns and labels:
# [1] = Hydrophobicity estimation by RP-HPLC (percent acetonitrile at elution); format: physicochemical; conditions: RP-HPLC C18, linear acetonitrile gradient 1% per minute
# From the text: In order to estimate the hydrophobicity of each polymer, the polymer was eluted with a linear gradient of acetonitrile (1% per minute) on an HPLC reversed-phase C18 column, and the percent of acetonitrile at which the polymer was eluted was used for hydrophobicity estimation (see, “ACN (%)” in Table 3 below).
# “ACN (%)” represents the percent of acetonitrile in the RP-HPLC gradient mobile phase at which the polymer was eluted and which corresponds to the estimated hydrophobicity of the polymer (column 4 in Table 3);
# E. coli [2] = test: Bacteria capture assay with polymer-loaded resin beads (incl. kinetic studies); format: binding, Escherichia coli ATCC 35218; conditions: for Bound E. coli (CFU/mg resin): polymer-loaded resin beads, 30 minutes incubation
# Description: Various concentrations of bacteria in 500 μl luria bertani broth (LB) were shaken at room temperature in the presence of deprotected polymer-loaded beads (1.8 mg of polymer per sample) or protected polymer-loaded and unloaded beads as a control experiment in a centrifuge tube equipped with a 10 μm cutoff membrane (Whatman polypropylene mesh VectaSpin Micro). After 30 minutes incubation the samples were centrifuged at 21,000×g for 5 minutes to separate beads from unbound bacteria and further analyzed as follows.
# (§1) To assess bacterial binding to the beads, filtrates were subjected to serial 10 fold dilutions and plated on LB agar plates. Cell counts were determined using the drop plate method (three 20 μl drops onto LB agar plates) after overnight incubation at 37° C. For the viability study, resins were spread directly on LB agar plates and incubated similarly. For kinetic studies, resins were incubated with 1×10^6 CFU/ml E. coli in LB for up to 15 minutes and filtered after the indicated time periods then plated for CFU count.
# “Bound E. coli (CFU/mg resin)” represents the capturing capacity of bacterial binding per one milligram of polymer-loaded resin beads as assessed after 30 minutes incubation using the capture assay as presented herein (column 9 in Table 3).
# B. cereus = format: cell-based
# From the text: (§2) “MIC (μM)” represents the minimal inhibitory concentration of each tested polymer in μM for each bacterial strain, measured as described previously (columns 5-8 in Table 3); For bacterial strains, “Ec” represents E. coli; “Pa” represents P. aeruginosa; “Sa” represents S. aureus; and “Bc” represents B. cereus; and […]
# S. aureus = format: cell-based
# From the text: as §2
# E. coli [3] = format: cell-based
# From the text: as §2
# P. aeruginosa = format: cell-based
# From the text: as §2
# E. coli [4] = format: cell-based; remark: listed apart in the source
# Description: as §1
# The non-cytotoxicity of the beads-bound polymers was assessed by the viability of the polymer-captured bacteria. E. coli was incubated with beads-bound polymers (10^6 CFU/ml/mg resin), and after filtration, samples of the resins and the filtrates were plated on LB-agar individually.
# FIG. 6 presents a series of images of LB-agar plates, showing the viability of the captured E. coli cells (1×10^6 CFU/ml) which were incubated for 30 minutes with deprotected (FIGS. 6A1 and 6A2) and Boc-protected (FIGS. 6B1 and 6B2) K(NC12K)7NH2-loaded resin beads, wherein FIGS. 6A1 and 6B1 show the plates of the plated filtrates and FIGS. 6A2 and 6B2 show the plates of filtered and plated beads.
# [5] = Regeneration and stability of polymer-loaded beads (HPLC and MS after cleavage); format: physicochemical
# From the text: To verify their stability and the regeneration thereof, polymer-loaded resin beads were submitted to multiple cycles of bacterial binding followed by their release with 70% ethanol. To assess the potential polymer degradation, the polymer was cleaved from the resin, analyzed by HPLC and identified by mass spectrometry.
# Polymer-loaded beads were exposed to 10 consecutive cycles of bacterial binding and release with 70% ethanol, and were submitted to a cleavage reaction. The cleaved polymers were analyzed by HPLC and mass spectrometry before and after the repetitive cycles. The HPLC chromatograms were obtained over […] elution using a 1% gradient of acetonitrile in water (30% to 60%), and the fraction containing the polymer was subjected to mass spectrometry analysis.
# GFP-expressing E. coli = test: Viability of polymer-captured bacteria, propidium iodide staining
# Description: To establish the viability of polymer-captured bacteria, samples of polymer-captured GFP-expressing bacteria were incubated for 15 minutes at room temperature in a solution of 1 ml propidium iodide (Invitrogen, USA) in PBS (final concentration 0.06 mM), and thereafter centrifuged/washed in PBS and examined under a confocal fluorescent microscope using emission suitable for GFP and propidium iodide (excitation at 490 nm emission at 620 nm).
# bacteria = test: Antibacterial activity (MIC) of the resin-free polymer, strain not given; format: cell-based
# From the text: as §2
# E. coli [6] = test: Bacterial binding assay by real-time SPR on polymer-coated chip; conditions: 10^6 CFU/ml E. coli
# Description: Purified resin-free polymers were immobilized onto the CM5 sensor chip (BIAcore, Uppsala, Sweden) via the terminal carboxyl group using 2-(2-pyridinyldithio)ethaneamine (PDEA). Carboxyl activation was achieved as follows. Morpholino-ethanesulfonic acid (MES buffer, 0.1 ml of 0.1 M) at pH 5.0 was used to solubilize 0.1 mg of the polymer. The solution was mixed with PDEA to final concentration of 22 mM and ethyl-3-(3-dimethylaminopropyl)-carbodiimide (EDC) to final concentration of 13 mM, incubated for 1 hour on ice and then placed in a dialysis tube (floating in buffer) to remove the excess reagents. In parallel, a 1:1 solution (20 μl) of EDC (0.4 M 1-ethyl-3-(3-dimethylaminopropyl)-carbodiimide in water):NHS (0.1 M N-hydroxysuccinimide in water) was injected at a flow rate of 10 μl/minute, to activate the chip surface. […]
# Bacterial binding to the polymer was determined by surface plasmon resonance (SPR) using the optical biosensor system BIAcore 2000 (BIAcore, Uppsala, Sweden). […]
# For real-time monitoring of bacterial capture the present inventors have developed a model system based on the SPR technology that normally enables binding measurements between immobilized receptor molecules and soluble ligands. […] In the example presented herein, the polymer was immobilized onto the sensor chip and bacteria were injected over the polymer-bound surface and their binding monitored in real-time. […]
Compound,ACN (%) at which the polymer was eluted (estimated hydrophobicity) [1],Bound E. coli (CFU/mg resin) (E. coli [2]),MIC (μM) Bc (B. cereus; resin-free polymer),MIC (μM) Sa (S. aureus; resin-free polymer),MIC (μM) Ec (E. coli [3]; resin-free polymer),MIC (μM) Pa (P. aeruginosa; resin-free polymer),MIC (μM) Bc (B. cereus),MIC (μM) Sa (S. aureus),MIC (μM) Ec (E. coli [3]),MIC (μM) Pa (P. aeruginosa),also measured
"H-KKKKKKKK-NH2 [Polymer K8NH2, reference compound]",20%,9 ± 1 × 10^2 CFU/mg resin,>50 µM,>50 µM,>50 µM,>50 µM,–,–,–,–,–
NCCCC[C@H](NC(=O)CCCCCCCCCCCNC(=O)[C@H](CCCCN)NC(=O)CCCCCCCCCCCNC(=O)[C@H](CCCCN)NC(=O)CCCCCCCCCCCNC(=O)[C@H](CCCCN)NC(=O)CCCCCCCCCCCNC(=O)[C@H](CCCCN)NC(=O)CCCCCCCCCCCNC(=O)[C@H](CCCCN)NC(=O)CCCCCCCCCCCNC(=O)[C@H](CCCCN)NC(=O)CCCCCCCCCCCNC(=O)[C@@H](N)CCCCN)C(N)=O [K(NC12K)7NH2],–,–,–,–,–,–,>50 µM,>50 µM,>50 µM,>50 µM,"viable bacteria on the filtered and plated beads (E. coli [4]): remained alive; stability of the polymer after repeated use [5]: remained unchanged; fraction of dead bacteria (GFP-expressing E. coli; polymer-captured bacteria, did not exceed control suspension): up to 12%; viability of polymer-captured bacteria (GFP-expressing E. coli; propidium iodide exclusion): most polymer-captured bacteria were alive; MIC (bacteria): more than 50 μM"
"H-KKKKKKKKKKKKKKK-NH2 [Polymer K15NH2, reference compound]",22%,1 ± 0.6 × 10^3 CFU/mg resin,>50 µM,>50 µM,>50 µM,>50 µM,–,–,–,–,fold less efficient than the K(NC12K)7NH2-coated chip (E. coli [6]): more than 100 fold; stability of the polymer after repeated use ([5]; 10 cycles of bacterial binding and release with 70% ethanol): deteriorated over time
NCCCC[C@H](NC(=O)CCCCCCCNC(=O)[C@H](CCCCN)NC(=O)CCCCCCCNC(=O)[C@H](CCCCN)NC(=O)CCCCCCCNC(=O)[C@H](CCCCN)NC(=O)CCCCCCCNC(=O)[C@H](CCCCN)NC(=O)CCCCCCCNC(=O)[C@H](CCCCN)NC(=O)CCCCCCCNC(=O)[C@H](CCCCN)NC(=O)CCCCCCCNC(=O)[C@@H](N)CCCCN)C(N)=O [K(NC8K)7NH2],34%,2 ± 0.6 × 10^2 CFU/mg resin,–,–,–,–,>50 µM,>50 µM,>50 µM,>50 µM,–
dermaseptin [reference compound],–,–,–,–,–,–,–,–,–,–,fraction of dead bacteria upon exposure (GFP-expressing E. coli; polymer-bound bacteria exposed 15 minutes at 12.5 μM): significantly increased
CCCCCCCCCCCC(=O)NC(CCCCN)C(=O)NCCCCCCCC(=O)NC(CCCCN)C(=O)NCCCCCCCC(=O)NC(CCCCN)C(=O)NCCCCCCCC(=O)NC(CCCCN)C(=O)NCCCCCCCC(=O)NC(CCCCN)C(=O)NCCCCCCCC(=O)NC(CCCCN)C(=O)NCCCCCCCC(=O)NC(CCCCN)C(=O)NCCCCCCCC(=O)NC(CCCCN)C(N)=O (stereo not shown) [C12K(NC8K)7NH2],47.5%,1 ± 0.5 × 10^3 CFU/mg resin,12.5 µM,50 µM,3.1 µM,6.2 µM,–,–,–,–,amount of captured bacteria (E. coli [2]; polymer-loaded resin beads exposed to E. coli): approximately 10^3 CFUs
